Results from PMC12257394, “Design, Synthesis, and Biological Evaluation of Ferrocenyl–Cyclo-(Gly‑L‑Pro) Hybrids Sensitizing Multidrug-Resistant Cancer Cells to Anticancer Agents” (ACS Medicinal Chemistry Letters, 2025).

How the values were obtained:
Format in all cases: cell-based, human
SW620 cells = experiment: Synergy determination (Bliss model, SynergyFinder), SW620;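 also: score below −10 means likely antagonism and −10 to 10 means additive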
From the text: (§1) In an ideal setting, the effect of cell exposure to a combination of a chemotherapeutic and an MDR inhibitor should be synergistic. […] The highest synergy scores identified an optimal concentration range where the combination exerted its maximal effect. […] In cisplatin-resistant SW620C cells, the low or lack of synergy observed for most compounds may be due to the additive effects of cisplatin and 4 rather than a true synergistic interaction. […]
(§2) To evaluate the potential interactions between putative ABC inhibitors and anticancer drugs, we utilized the Bliss independence model, as implemented in the SynergyFinder web application.13, 14 Synergy scores and the most synergistic area scores were calculated based on the normalized dose–response matrices. A synergy score below −10 indicates likely […]
(§3) above 10 is indicative of likely synergistic interactions.
(§4) All experiments were performed at least three times, and the data were statistically analyzed

[1] = tested on: ABCB1-overexpressing SW620V cells; experiment: MDR reversal assay (ERP), SW620V; settings: for ERP value, vincristine + compound: SW620V (xlsx); for ERP = IC50(drug)MDR/IC50(drug+4)MDR: vincristine, SW620V
From the text: We investigated the potency of 4a–e to inhibit ABC transporters (ABCB1, ABCC1, and ABCG2) by determining their enhancement of reversal potency (ERP) values. ERP represents fold changes in the IC50 values of anticancer drugs in multidrug-resistant cancer sublines (ABCB1-overexpressing SW620D, SW620E, and SW620V; ABCC1-overexpressing SW620M; ABCG2-overexpressing SW620C and SW620Mito) exposed to a combination of the investigated compounds and anticancer agents at equimolar concentrations, compared with values obtained with drugs alone (Tables S2 and S3 and Figure ).
(§5) Standards. Multidrug-resistant variants of SW620 cells were developed in our laboratory as described previously.10, 11 All cells were cultured under standard conditions (37°C, 5% CO2, 100% humidity) in high-glucose DMEM supplemented with GlutaMaxTM, HEPES (ThermoFisher Scientific, USA), and 10% fetal bovine serum (EURx, Poland). Cells were routinely tested for potential Mycoplasma contamination using the MycoProbe Mycoplasma Detection kit (R&D System, USA).
(§6) In total, 104 cells in 100 µL of complete medium were plated per well of a 96-well plate and left overnight to allow cells to adhere to the surface. Then, the cells were exposed to a desired concentration of tested compound(s). Stock solutions were prepared in DMSO and used immediately. The final DMSO concentration was constant and nontoxic (0.1% v/v). After 70-h incubation, neutral red was added to the final concentration of 1 mM. After another 2 h, the medium was aspirated, and cells were washed twice with PBS. Dye was released using 100 µL of a solubilizer (1% acetic acid in 50% ethanol) on an orbital shaker (10 min). Absorbance was read at 540 nm using EnVision Multilabel Plate Reader (Perkin Elmer, USA). Results were expressed as % of control. The IC50 parameters were calculated using GraphPad Prism version 10 (GraphPad Software, Boston, Massachusetts USA).
(§7) The enhancement of reversal potency (ERP) value determination
(§8) For MDR reversal assays, cytotoxic agents were co-administered with compounds 4a–4e at equimolar concentrations in a range of 10 nM to 100 µM. IC₅₀ values were determined in ABCB1-overexpressing SW620 cell line variants. The enhancement of reversal potency (ERP) was calculated using the following formula: ERP = IC₅₀(drug)MDR / IC₅₀(drug + compound)MDR. All experiments were performed in triplicate (n = 3).

SW620E cells = experiment: Synergy determination (Bliss model, SynergyFinder), SW620E; settings: drug etoposide + additive; for synergy score: Bliss model
From the text: as §1, §2, §3, §4

SW620D cells = experiment: Synergy determination (Bliss model, SynergyFinder), SW620D; settings: drug doxorubicin + additive; for synergy score: Bliss model
From the text: as §1, §2, §3, §4

[2] = tested on: SW620Mito cells (mitoxantrone-resistant); experiment: Neutral red uptake viability assay, SW620Mito; settings: 72 h; for survival rate: n = 3, ± SD; for IC50: n = 3, read-out: Cytotoxic activity IC50 (95% CI)
Protocol: (§9) In general, compounds 4a–e exerted little or no cytotoxic effect on either SW620 or multidrug-resistant sublines even at 10 μM, with the remarkable exception of SW620C (cisplatin-selected variant of SW620) cells, which turned out to be relatively susceptible toward ferrocenyl 4a–c. […] This trend may reflect steric or electronic contributions to cellular uptake or interaction with intracellular targets. […] However, since E/Z isomeric data are currently available only for compound 4c, this hypothesis requires validation. To quantify this effect, IC50 values were determined (Table ). […]
(§10) The normal lung fibroblast MRC-5 and colorectal adenocarcinoma SW620 cell lines used in this experiment were purchased from American Type Culture Collection (USA) via LGC […]
as §5
as §6, with “Massachusetts USA). […]” for “Massachusetts USA).”
(§11) All experiments were performed in triplicate (n = 3).

SW620C cells = experiment: Synergy determination (Bliss model, SynergyFinder), SW620C; settings: drug cisplatin + additive; for synergy score: Bliss model
From the text: as §1, §2, §3, §4

[3] = tested on: SW620D cells (doxorubicin-resistant); experiment: Neutral red uptake viability assay, SW620D; settings: 72 h; for survival rate: n = 3, ± SD; for IC50: n = 3, read-out: Cytotoxic activity IC50 (95% CI)
Protocol: as §9, §10, §5, §6, §7, §8

[4] = tested on: SW620V cells (vincristine-resistant); experiment: Neutral red uptake viability assay, SW620V; settings: 72 h; for survival rate: n = 3, ± SD; for IC50: n = 3, read-out: Cytotoxic activity IC50 (95% CI)
Protocol: as §9, §10, §5, §6, §7, §8

[5] = tested on: SW620C cells (cisplatin-resistant); experiment: Neutral red uptake viability assay, SW620C; settings: SW620C, 72 h; for survival rate: n = 3, ± SD; for IC50: read-out: Cytotoxic activity IC50 (95% CI)
Protocol: as §10
described previously.10, 11 All cells were cultured under standard conditions (37°C, 5% CO2, 100% humidity) in high-glucose DMEM supplemented with GlutaMaxTM, HEPES (ThermoFisher Scientific, USA), and 10% fetal bovine serum (EURx, Poland). Cells were routinely tested for potential Mycoplasma contamination using the MycoProbe Mycoplasma Detection kit (R&D System, USA).
as §6, with “Massachusetts USA). […]” for “Massachusetts USA).”
IC₅₀ values were determined in […]
as §11

SW620Mito cells = experiment: Synergy determination (Bliss model, SynergyFinder), SW620Mito; settings: drug mitoxantrone + additive, SW602Mito; for synergy score: Bliss model
From the text: as §1, §2, §3, §4

Row | SMILES | synergy score (in parentheses) (SW620 cells; drug cisplatin + additive) | synergy score (in parentheses) (SW620 cells; drug doxorubicin + additive) | synergy score (in parentheses) (SW620 cells; drug etoposide + additive) | synergy score (in parentheses) (SW620 cells; drug mitoxantrone + additive) | ERP value, vincristine + compound [1] | ERP = IC50(drug)MDR/IC50(drug+4)MDR [1] | most synergistic area score (SW620E cells) | synergy score (SW620E cells) | most synergistic area score (SW620D cells) | synergy score (SW620D cells) | survival rate ([2]; 1 μM) [%] | survival rate ([2]; 10 μM) [%] | most synergistic area score (SW620C cells) | survival rate ([3]; 1 μM) [%] | survival rate ([3]; 10 μM) [%] | survival rate ([4]; 1 μM) [%] | survival rate ([4]; 10 μM) [%] | survival rate ([5]; 1 μM) [%] | most synergistic area score (SW620Mito cells) | synergy score (SW620Mito cells) | also measured
1 | O=C1N/C(=C\c2ccccc2-[c-]2cccc2)C(=O)N2CCC[C@@H]12.[Fe+2].c1cc[cH-]c1 [(S,Z)-4b] | −5.00 | −2.67 | −5.23 | −3.17 | 9.57 | 9.57 | 14.42 | 3.32 | 11.62 | 3.96 | 85 ± 1.0 | 85 ± 1.9 | 0.00 | 97 ± 1.0 | 87 ± 3.0 | 92 ± 0.9 | 95 ± 2.4 | 83 ± 4.2 | 19.63 | 11.11 | synergy score (in parentheses) (SW620 cells; drug methotrexate + additive): 3.26; synergy score (in parentheses) (SW620 cells; drug vincristine + additive): 5.77; IC50 [2]: 44.9 µM; synergy score (SW620C cells): –2.78; IC50 [3]: > 100 µM; IC50 [4]: 48.8 µM; survival rate ([5]; 10 μM): 57 ± 1.1%; Cytotoxic activity IC50 (95% CI) ([5]; n = 3): low-micromolar; IC50 ([5]; n = 3): 12 µM
2 | O=C1N/C(=C\c2ccc(-[c-]3cccc3)cc2)C(=O)N2CCC[C@@H]12.[Fe+2].c1cc[cH-]c1 [(S,Z)-4d] | −2.46 | – | 0.64 | -1.93 | 12.7 | 12.7 | 26.95 | 16.02 | 17.81 | 7.37 | 98 ± 0.9 | 93 ± 1.1 | 13.42 | 92 ± 0.8 | 96 ± 0.9 | 94 ± 2.9 | 95 ± 3.2 | 96 ± 3.6 | 27.66 | 17.05 | synergy score (in parentheses) (SW620 cells; drug methotrexate + additive): −2.64; synergy score (in parentheses) (SW620 cells; drug vincristine + additive): -1.29; IC50 [2]: > 100 µM; IC50 [3]: > 100 µM; IC50 [4]: > 100 µM; IC50 ([5]; n = 3): > 100 µM
3 | O=C1N/C(=C\c2ccccc2)C(=O)N2CCC[C@@H]12 [(S,Z)-4e] | −3.94 | −3.90 | −3.96 | 1.87 | 1.27 | 1.27 | 2.22 | –2.56 | 0.00 | –8.70 | 92 ± 1.3 | 94 ± 1.8 | 6.66 | 96 ± 0.7 | 94 ± 2.9 | 98 ± 0.9 | 99 ± 1.4 | 95 ± 2.1 | 0.00 | –3.17 | synergy score (SW620C cells): –3.14; survival rate ([5]; 10 μM): 95 ± 1.0%
